Active and inactive are the calls of the source.
Legend:
[1] = biological target: T1, Tyrosine-protein phosphatase non-receptor type 7 (Homo sapiens, UniProt P35236); assay: redox-dependent HePTP inhibition, mechanism study, biochemical, fluorescence (AID 2068); format: functional
T1 sequence (P35236 whole entry): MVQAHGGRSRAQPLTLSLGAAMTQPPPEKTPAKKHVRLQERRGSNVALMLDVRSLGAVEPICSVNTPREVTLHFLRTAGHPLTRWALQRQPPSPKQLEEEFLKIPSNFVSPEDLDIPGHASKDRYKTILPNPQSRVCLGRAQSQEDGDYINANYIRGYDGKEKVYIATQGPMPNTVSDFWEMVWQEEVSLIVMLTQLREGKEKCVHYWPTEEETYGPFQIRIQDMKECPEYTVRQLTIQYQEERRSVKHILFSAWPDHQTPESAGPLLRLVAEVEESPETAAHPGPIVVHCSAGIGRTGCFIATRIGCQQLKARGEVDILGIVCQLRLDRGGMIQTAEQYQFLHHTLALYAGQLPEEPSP

[2] = biological target: Induced myeloid leukemia cell differentiation protein Mcl-1 (Homo sapiens, UniProt Q07820); assay: MCL1-BIM BH3 interaction inhibitors, dose response, biochemical, fluorescence polarization, BIM-BH3 peptide, 1536-well (AID 2217)
Sequence of Induced myeloid leukemia cell differentiation protein Mcl-1 (Q07820 whole entry): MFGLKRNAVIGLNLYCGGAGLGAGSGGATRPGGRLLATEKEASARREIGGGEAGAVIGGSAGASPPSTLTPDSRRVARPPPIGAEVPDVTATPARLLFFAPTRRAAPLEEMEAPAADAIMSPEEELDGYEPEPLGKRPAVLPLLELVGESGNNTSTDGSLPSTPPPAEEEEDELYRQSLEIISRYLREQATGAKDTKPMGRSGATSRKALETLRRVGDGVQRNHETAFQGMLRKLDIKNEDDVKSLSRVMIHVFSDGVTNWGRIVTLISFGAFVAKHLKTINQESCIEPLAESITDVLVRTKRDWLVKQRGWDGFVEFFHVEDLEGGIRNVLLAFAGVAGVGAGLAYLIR

Bcl-2-like protein 1 = Bcl-2-like protein 1 (Homo sapiens, UniProt Q07817); assay: BCL-XL inhibitors, dose response, selectivity assay for MCL1 inhibitor project, biochemical, fluorescence polarization, 1536-well (AID 2218)
Sequence of Bcl-2-like protein 1 (Q07817 whole entry): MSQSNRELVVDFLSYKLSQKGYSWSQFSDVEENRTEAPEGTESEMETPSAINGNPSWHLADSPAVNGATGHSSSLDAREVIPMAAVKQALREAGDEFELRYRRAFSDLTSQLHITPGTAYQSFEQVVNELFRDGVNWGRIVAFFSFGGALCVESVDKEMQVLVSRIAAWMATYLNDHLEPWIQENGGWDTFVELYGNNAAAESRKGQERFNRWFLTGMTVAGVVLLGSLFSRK

[3] = biological target: T2, Intestinal-type alkaline phosphatase (Homo sapiens, UniProt P09923); assay: activation of human intestinal alkaline phosphatase – biochemical, dose response (AID 488873); format: functional
T2 sequence (P09923 whole entry): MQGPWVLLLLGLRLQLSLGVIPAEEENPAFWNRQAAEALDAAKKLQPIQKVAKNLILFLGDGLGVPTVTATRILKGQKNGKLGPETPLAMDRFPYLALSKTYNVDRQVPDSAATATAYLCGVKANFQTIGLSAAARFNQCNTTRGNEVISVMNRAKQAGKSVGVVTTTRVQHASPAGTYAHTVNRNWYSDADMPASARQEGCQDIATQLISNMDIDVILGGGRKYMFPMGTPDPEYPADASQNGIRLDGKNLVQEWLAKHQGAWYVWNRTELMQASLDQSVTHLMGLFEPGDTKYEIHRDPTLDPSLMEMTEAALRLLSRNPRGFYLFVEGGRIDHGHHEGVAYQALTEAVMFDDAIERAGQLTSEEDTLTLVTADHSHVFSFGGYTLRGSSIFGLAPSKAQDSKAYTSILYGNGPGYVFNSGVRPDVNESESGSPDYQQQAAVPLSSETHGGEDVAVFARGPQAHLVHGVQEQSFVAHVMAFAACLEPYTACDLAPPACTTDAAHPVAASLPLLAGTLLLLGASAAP

[4] = biological target: Intestinal-type alkaline phosphatase (Mus musculus, UniProt P24822); assay: PubChem AID 488785; format: functional
Sequence of Intestinal-type alkaline phosphatase (Mus musculus, UniProt P24822) (P24822 whole entry): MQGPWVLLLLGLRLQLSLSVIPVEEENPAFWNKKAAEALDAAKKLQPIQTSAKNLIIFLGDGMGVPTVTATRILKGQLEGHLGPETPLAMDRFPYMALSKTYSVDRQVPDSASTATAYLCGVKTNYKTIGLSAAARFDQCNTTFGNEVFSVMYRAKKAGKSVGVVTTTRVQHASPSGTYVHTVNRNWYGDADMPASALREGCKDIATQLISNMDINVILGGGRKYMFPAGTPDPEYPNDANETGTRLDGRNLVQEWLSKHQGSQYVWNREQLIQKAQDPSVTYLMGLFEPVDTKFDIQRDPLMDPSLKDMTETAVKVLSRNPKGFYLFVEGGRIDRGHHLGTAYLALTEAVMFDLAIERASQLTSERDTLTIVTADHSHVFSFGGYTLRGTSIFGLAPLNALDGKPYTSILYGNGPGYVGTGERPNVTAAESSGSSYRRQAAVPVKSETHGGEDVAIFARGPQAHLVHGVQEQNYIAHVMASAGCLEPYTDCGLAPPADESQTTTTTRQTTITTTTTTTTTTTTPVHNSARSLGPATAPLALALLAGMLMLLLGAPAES

[5] = biological target: T3, Alkaline phosphatase, tissue-nonspecific isozyme (Homo sapiens, UniProt P05186); assay: TNAP enzyme inhibition by screening hits, dose response, selectivity assay for mouse IAP inhibitor project, biochemical, human TNAP, uHTS hits (AID 488906); format: functional
T3 sequence (P05186 whole entry): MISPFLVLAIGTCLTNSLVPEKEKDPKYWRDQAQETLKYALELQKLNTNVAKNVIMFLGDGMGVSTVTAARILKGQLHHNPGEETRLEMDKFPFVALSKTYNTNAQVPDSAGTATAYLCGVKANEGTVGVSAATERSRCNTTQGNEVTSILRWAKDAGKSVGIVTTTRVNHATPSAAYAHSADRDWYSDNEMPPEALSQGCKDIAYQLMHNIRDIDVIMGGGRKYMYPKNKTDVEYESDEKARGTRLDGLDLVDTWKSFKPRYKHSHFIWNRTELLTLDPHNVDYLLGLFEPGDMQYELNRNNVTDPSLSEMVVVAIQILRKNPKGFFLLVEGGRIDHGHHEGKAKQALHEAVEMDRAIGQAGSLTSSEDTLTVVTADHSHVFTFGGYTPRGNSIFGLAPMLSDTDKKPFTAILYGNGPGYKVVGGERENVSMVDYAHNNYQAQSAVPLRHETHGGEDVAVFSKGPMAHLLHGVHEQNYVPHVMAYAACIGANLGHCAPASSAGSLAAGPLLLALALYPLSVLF

[6] = biological target: DNA (cytosine-5)-methyltransferase 1 (Homo sapiens, UniProt P26358); assay: DNMT1 methyltransferase inhibitors, confirmation, biochemical, fluorescent molecular beacon (AID 602386); format: functional
[7] = biological target: T4, Small ubiquitin-related modifier 1 (Homo sapiens, UniProt P63165); assay: inhibitors of SUMO1 peptide binding, dose response, biochemical, fluorescence polarization, uHTS hits (AID 624382); format: functional; settings: read-out: IC50_Mean
T4 sequence (P63165 whole entry): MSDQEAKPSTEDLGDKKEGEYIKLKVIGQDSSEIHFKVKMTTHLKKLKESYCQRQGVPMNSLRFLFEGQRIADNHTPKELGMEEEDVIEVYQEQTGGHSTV

[8] = biological target: T4, Small ubiquitin-related modifier 1; assay: inhibitors of SUMO1 partner interactions, dose response, biochemical, FRET (AID 624383); format: functional; settings: read-out: IC50_Mean
[9] = biological target: T5, Kappa-type opioid receptor (Homo sapiens, UniProt P41145); assay: SAR analysis of small molecule agonists of the kappa opioid receptor via a luminescent beta-arrestin assay - Set 2. [Related pubchem assays (depositor defined):AID1777, AID1785, AID1786, AID1966, AID2133, AID2136, AID2284, AID449737]; format: functional
T5 sequence (P41145 whole entry): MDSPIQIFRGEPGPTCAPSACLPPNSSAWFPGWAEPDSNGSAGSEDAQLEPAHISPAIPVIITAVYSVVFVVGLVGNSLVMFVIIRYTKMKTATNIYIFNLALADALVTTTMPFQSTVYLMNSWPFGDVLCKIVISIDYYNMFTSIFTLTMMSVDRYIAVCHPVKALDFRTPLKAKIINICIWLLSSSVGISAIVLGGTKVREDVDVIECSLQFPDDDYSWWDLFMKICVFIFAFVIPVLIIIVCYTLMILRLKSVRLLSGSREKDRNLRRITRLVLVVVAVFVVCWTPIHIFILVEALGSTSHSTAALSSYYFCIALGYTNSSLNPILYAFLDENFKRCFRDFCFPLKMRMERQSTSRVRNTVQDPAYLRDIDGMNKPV

Integrin alpha-L = Integrin alpha-L (Mus musculus, UniProt P24063); assay: modulators of CD8 T cell-vesicle binding, dose response, powder samples, mouse 2C CD8+ cells (AID 504565); format: functional
T-cell = assay: inhibitors of CD8+ T cell–vesicle binding, dose response, mouse 2C CD8+ T cells, flow cytometry (AID 485284); format: functional
[10] = biological target: T5, Kappa-type opioid receptor; format: functional
Beta-galactosidase = Beta-galactosidase (Escherichia coli, UniProt Q8VNN2); format: functional
Sequence of Beta-galactosidase (Q8VNN2 whole entry): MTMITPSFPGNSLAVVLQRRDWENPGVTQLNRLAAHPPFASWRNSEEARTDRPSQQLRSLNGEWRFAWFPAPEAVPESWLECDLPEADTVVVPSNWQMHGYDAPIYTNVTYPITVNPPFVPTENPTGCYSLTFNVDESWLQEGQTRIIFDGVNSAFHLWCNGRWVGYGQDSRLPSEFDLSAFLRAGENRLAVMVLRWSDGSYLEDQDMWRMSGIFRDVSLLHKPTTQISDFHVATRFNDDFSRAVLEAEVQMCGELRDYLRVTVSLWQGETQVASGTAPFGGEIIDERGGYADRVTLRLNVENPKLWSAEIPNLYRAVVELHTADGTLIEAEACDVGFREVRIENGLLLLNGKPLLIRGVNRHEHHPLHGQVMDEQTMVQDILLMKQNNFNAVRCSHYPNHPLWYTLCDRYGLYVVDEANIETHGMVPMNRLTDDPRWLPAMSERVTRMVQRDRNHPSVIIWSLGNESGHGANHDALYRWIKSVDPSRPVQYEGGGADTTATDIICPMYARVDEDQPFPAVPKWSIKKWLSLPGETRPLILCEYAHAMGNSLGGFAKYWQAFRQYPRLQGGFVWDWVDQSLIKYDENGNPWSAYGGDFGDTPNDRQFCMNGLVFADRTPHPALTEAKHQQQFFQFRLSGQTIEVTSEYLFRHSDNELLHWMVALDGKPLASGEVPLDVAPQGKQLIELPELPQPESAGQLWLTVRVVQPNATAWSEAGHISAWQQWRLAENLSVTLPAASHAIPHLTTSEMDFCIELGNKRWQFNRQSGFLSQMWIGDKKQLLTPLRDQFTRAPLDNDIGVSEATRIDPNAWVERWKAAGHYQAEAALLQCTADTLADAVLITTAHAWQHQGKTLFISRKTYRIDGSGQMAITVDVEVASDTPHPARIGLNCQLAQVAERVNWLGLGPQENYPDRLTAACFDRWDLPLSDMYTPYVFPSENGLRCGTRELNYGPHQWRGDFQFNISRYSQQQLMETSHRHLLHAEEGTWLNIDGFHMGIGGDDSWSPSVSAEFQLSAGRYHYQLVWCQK

[11] = biological target: T5, Kappa-type opioid receptor; format: functional; remark: listed apart in the source
[12] = biological target: DNA dC->dU-editing enzyme APOBEC-3A (Homo sapiens, UniProt P31941); assay: APOBEC3A DNA deaminase inhibitors, dose response, biochemical (AID 504722); format: functional
[13] = biological target: DNA dC->dU-editing enzyme APOBEC-3G (Homo sapiens, UniProt Q9HC16); assay: Dose Response confirmation of small molecule APOBEC3G DNA Deaminase Inhibitors via a fluorescence-based single-stranded DNA deaminase assay. [Related pubchem assays (depositor defined):AID493012, AID493028]; format: functional
Sequence of DNA dC->dU-editing enzyme APOBEC-3G (Q9HC16 whole entry): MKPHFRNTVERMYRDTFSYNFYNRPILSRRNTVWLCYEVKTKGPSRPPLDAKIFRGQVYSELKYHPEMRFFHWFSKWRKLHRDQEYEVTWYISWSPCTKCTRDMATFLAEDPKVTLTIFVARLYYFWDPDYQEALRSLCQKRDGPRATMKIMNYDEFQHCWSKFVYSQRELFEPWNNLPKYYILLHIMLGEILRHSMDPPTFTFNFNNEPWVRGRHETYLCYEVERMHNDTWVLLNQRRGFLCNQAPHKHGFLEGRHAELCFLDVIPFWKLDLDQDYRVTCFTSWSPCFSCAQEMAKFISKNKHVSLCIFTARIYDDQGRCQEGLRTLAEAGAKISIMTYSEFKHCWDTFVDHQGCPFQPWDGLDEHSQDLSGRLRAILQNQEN

[14] = biological target: T6, Short transient receptor potential channel 4 (Mus musculus, UniProt Q9QUQ5); assay: TRPC4 positive allosteric modulators, dose response, cell-based, HEK293 TRPC4/mu-opioid, Fluo-4 calcium, EC20 DAMGO (AID 434941); format: functional
T6 sequence (Q9QUQ5 whole entry): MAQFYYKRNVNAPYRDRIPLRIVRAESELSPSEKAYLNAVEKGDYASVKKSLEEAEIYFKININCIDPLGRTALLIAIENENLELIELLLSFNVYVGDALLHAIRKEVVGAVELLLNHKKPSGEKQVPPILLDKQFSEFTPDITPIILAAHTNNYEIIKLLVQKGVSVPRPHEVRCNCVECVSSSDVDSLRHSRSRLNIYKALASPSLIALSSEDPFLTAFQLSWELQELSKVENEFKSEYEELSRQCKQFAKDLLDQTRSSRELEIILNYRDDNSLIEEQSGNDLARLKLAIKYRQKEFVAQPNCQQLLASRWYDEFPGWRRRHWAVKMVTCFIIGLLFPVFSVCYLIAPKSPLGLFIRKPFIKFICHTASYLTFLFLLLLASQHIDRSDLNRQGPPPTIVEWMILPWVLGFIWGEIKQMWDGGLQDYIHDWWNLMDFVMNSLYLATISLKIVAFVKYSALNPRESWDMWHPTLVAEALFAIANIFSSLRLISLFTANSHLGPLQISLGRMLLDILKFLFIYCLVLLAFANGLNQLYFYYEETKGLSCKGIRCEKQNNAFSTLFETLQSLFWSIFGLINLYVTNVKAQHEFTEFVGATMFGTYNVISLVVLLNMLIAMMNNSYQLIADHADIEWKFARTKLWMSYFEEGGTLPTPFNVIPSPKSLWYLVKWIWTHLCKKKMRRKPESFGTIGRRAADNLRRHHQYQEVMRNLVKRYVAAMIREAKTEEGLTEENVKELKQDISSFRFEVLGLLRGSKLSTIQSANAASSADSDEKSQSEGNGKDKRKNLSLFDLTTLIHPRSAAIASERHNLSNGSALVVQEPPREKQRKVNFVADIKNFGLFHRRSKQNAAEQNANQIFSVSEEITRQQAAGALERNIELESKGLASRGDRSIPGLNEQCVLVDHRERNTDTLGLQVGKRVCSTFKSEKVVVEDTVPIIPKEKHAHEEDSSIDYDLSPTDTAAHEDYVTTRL

[15] = biological target: Eukaryotic translation initiation factor 4H (Homo sapiens, UniProt Q15056); assay: eIF4H inhibition in translation initiation, SAR follow-up (AID 435011); format: functional
[16] = biological target: Polyadenylate-binding protein 1 (Homo sapiens, UniProt P11940); assay: PABP inhibition in translation initiation, SAR follow-up (AID 435018); format: functional
Sequence of Polyadenylate-binding protein 1 (P11940 whole entry): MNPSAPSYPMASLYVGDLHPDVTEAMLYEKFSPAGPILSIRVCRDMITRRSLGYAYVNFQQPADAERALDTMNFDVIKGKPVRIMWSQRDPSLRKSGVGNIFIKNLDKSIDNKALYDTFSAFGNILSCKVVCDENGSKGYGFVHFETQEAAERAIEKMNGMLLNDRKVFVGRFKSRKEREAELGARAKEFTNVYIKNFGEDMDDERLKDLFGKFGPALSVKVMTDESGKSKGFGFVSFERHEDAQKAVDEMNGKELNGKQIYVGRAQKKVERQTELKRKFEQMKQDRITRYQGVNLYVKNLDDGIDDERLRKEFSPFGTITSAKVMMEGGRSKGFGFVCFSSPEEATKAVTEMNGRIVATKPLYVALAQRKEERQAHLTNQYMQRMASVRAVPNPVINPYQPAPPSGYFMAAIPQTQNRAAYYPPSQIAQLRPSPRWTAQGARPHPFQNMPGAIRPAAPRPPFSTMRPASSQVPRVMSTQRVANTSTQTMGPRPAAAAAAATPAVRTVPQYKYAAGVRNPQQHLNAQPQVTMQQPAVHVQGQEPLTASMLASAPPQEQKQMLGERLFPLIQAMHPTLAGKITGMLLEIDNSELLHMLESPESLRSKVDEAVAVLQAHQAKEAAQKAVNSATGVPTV

[17] = NIH-3T3 fibroblast cytotoxicity, dose response, cytotoxicity control, cell-based, fluorescence, Alamar Blue, secondary assay (AID 2327); format: functional;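 also: NIH-3T3 mouse fibroblasts cultured with fluconazole at 8 µg/mL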
[18] = inhibitors of firefly luciferase expression or activity, dose response, H4 neuroglioma cells, luminescence (AID 1990); format: functional, cell-based
[19] = Luminescence Cell-Based Dose Response HTS to Identify Inhibitors of 5'UTR Stem-Loop Driven Prion Protein mRNA Translation in H4 Neuroglioblastoma Cells. [Related pubchem assays: 1827 (Project Summary), 1813 (Primary HTS)]; format: functional
[20] = biological target: T7, Heat shock factor protein 1 (Mus musculus, UniProt P38532); assay: inhibition of MG132-induced HSE-luciferase signal, confirmation, cell-based, NIH3T3, luminescence, dose retest (AID 2382); format: functional;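 also: NIH3T3 fibroblasts with HSF1-driven luciferase reporter stressed by proteasome inhibitor MG132; luminescence from HSF1-driven luciferase expression after 8 hours of MG132 stress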
T7 sequence (P38532 whole entry): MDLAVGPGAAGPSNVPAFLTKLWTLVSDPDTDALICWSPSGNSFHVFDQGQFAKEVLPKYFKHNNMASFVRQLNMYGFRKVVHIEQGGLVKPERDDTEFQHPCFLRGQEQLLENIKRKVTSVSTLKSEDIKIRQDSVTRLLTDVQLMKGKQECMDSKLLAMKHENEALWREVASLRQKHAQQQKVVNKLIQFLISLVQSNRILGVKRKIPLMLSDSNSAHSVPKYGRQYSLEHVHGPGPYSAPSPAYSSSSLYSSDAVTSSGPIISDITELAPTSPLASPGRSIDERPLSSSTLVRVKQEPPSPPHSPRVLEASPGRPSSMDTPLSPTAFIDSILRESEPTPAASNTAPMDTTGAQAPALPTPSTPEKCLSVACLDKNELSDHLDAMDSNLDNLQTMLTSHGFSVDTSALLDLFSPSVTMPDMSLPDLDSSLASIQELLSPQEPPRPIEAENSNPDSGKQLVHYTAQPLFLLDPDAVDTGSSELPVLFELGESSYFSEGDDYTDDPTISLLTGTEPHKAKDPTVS

[21] = inhibitors of SNCA 5'UTR-driven reporter translation, confirmation, H4 neuroglioma cells, luminescence (AID 1988); format: functional, cell-based
[22] = C. albicans growth with fluconazole, confirmation, fluorescence, retest (AID 2467); format: functional, cell-based
[23] = biological target: Serine/threonine-protein phosphatase (Candida dubliniensis (strain CD36 / CBS 7987 / NCPF 3949 / NRRLY-17841) (Yeast), UniProt B9W6M3); assay: calcineurin pathway inhibitors in yeast reporter, dose response, S. cerevisiae, CDRE-lacZ, luminescence, secondary (AID 2388); format: functional, cell-based;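 also: yeast reporter cells carrying a calcineurin-responsive lacZ construct stimulated with calcium chloride; luminescent beta-galactosidase reporter signal in whole cells rather than isolated phosphatase activity; potency for inhibition where a drop in reporter signal means calcineurin blockade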
[24] = biological target: NACHT, LRR and PYD domains-containing protein 3 (Homo sapiens, UniProt Q96P20); assay: NALP3 inhibitors in yeast, dose response, luminescent (AID 488799); format: functional
[25] = THP-1 cell cytotoxicity, dose response, cytotoxicity control for non-replicating M. tuberculosis project (AID 489025); format: functional
[26] = HepG2 cell cytotoxicity, dose response, cytotoxicity control for non-replicating M. tuberculosis project (AID 489018); format: functional; settings: Mycobacterium tuberculosis
[27] = Vero E6 cell cytotoxicity, dose response, cytotoxicity control for non-replicating M. tuberculosis project, secondary assay (AID 492998); format: functional, VeroE6; settings: Vero C1008
cells = format: functional
[28] = biological target: ATP-dependent molecular chaperone HSP82 (Candida albicans (strain WO-1) (Yeast), UniProt C4YTQ8); assay: loss of DOC-induced GRE-beta-galactosidase reporter signal, dose response, Hsp90 inhibitor project, S. cerevisiae, luminescence (AID 2400); format: functional, cell-based;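 also: beta-galactosidase luminescence from glucocorticoid response element reporter as proxy for Hsp90 function; inhibitor potency where signal loss means Hsp90 inhibition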
Cytochrome P450 3A4 = Cytochrome P450 3A4 (Homo sapiens, UniProt P08684);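 also: CYP3A4 tested as one member of a cytochrome P450 panel screen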
[29] = biological target: T2, Intestinal-type alkaline phosphatase; assay: Dose Response confirmation of uHTS hits from a small molecule inhibitors of human intestinal alkaline phosphatase via a luminescent assay. [Related pubchem assays (depositor defined):AID2544, AID2574]; format: functional
Cytochrome P450 2C9 = Cytochrome P450 2C9 (Homo sapiens, UniProt P11712)
Sequence of Cytochrome P450 2C9 (P11712 whole entry): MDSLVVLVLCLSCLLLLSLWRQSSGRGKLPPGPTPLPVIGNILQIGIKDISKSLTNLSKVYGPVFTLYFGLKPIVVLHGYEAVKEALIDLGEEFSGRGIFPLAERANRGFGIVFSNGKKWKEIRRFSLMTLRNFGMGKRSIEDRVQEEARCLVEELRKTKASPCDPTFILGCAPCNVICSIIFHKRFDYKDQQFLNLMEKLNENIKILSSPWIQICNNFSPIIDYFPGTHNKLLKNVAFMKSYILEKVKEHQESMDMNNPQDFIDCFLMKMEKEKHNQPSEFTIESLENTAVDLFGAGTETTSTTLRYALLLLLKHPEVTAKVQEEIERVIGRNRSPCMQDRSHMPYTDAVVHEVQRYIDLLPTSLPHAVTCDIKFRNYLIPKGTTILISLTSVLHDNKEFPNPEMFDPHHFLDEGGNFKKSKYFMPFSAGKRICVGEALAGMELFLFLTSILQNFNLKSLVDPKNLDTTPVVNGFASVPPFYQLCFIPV

## O=C(Nc1ccc2nc(-c3ccco3)c(-c3ccco3)nc2c1)NC1CCCCC1
[1]
  IC50: > 50 µM (inactive)

## O=S(=O)(c1cc(O)ccc1O)c1cccc2c(S(=O)(=O)c3cc(O)ccc3O)cccc12
[2]
  IC50: 8.31 µM (active)
Bcl-2-like protein 1
  IC50: > 109 µM (not active)
[3]
  EC50: 15 µM (active)
[4]
  IC50: 12.8 µM (active)
[5]
  IC50: 38.9 µM (active)
[6]
  IC50: 3.81 µM (active)
[7]
  IC50: > 66.6 µM (inactive)
[8]
  IC50: 5.39 µM (active)

## O=C(CN(Cc1cccs1)C(=O)c1cccnc1)NC1CCCCCC1
[9]
  EC50: > 20 µM (inactive)

## CCN(CC)S(=O)(=O)c1ccc(Cl)c(NC(=O)COC(=O)C2CCCCC2)c1
Integrin alpha-L
  EC50: 0.026 µM (active)
T-cell
  EC50: 0.246 µM (active)

## COc1cc2c(cc1OC)C1(CCCC1)CNC2c1cccc([N+](=O)[O-])c1 (stereo unspecified)
[10]
  IC50: 5.26 µM (active)
Beta-galactosidase
  EC50: 8.91 µM (active)
[11]
  IC50: > 32 µM

## COc1ccccc1-n1c(S)nnc1-c1ccccc1
[12]
  IC50: > 100 µM (inactive)
[13]
  IC50: 4.11 µM (active)

## CCn1c(O)c(N=NC(=O)c2cccc(S(=O)(=O)N3CCCCC3)c2)c2ccccc21
[14]
  EC50: 2.37 µM (active)

## COc1ccc([N+](=O)[O-])cc1NC(=O)C(C)OC(=O)c1ccc(NC(N)=O)cc1 (stereo unspecified)
[15]
  IC50: > 100 µM (inactive)
[16]
  IC50: > 100 µM (inactive)

## O=c1c2ccc(Cl)cc2nc(-c2cccc(C(F)(F)F)c2)n1O
[17]
  EC50: > 150 µM (inactive)
[18]
  EC50: 10.4 µM (active)
[19]
  EC50: 9.65 µM (active)
[20]
  EC50: > 195 µM (not active)
[21]
  EC50: 6.6 µM (active)
[22]
  EC50: 0.605 µM (active)
[23]
  EC50: > 180 µM (inactive)
[24]
  IC50: 11 µM (active)
[25]
  CC50: 2.96 µM (active)
[26]
  CC50: 11.9 µM (active)
[27]
  CC50: 5.29 µM (active)
cells
  IC50: 6.27 µM (active)
[28]
  EC50: 15.6 µM (active)
Cytochrome P450 3A4
  AC50: 28.2 µM (inconclusive)

## CCCn1c(/C=C/c2ccccc2)nc2ccccc21
[29]
  IC50: > 100 µM (inactive)
Cytochrome P450 2C9
  AC50: inconclusive

— ChEMBL document CHEMBL1201862, “PubChem BioAssay data set” (2004)
